Values quoted from earlier work, collected in PubChem BioAssay AID1259409 (Chemical Carcinogenesis Research Information System (CCRIS), 2018).

Tested on: rodent chemically induced tumor inhibition, incidence and multiplicity
Experiment: CCRIS tumor inhibitor studies
Conditions: Species: RAT

Row | Compound | tumour outcome (control, treated, inhibition, significance) (Carcinogen: N-N-DIETHYLNITROSAMINE [55-18-5], N-METHYL-N-NITROSOUREA [684-93-5], N,N'-DIMETHYLHYDRAZINE [540-73-8], N-BUTYL-N-(4-HYD, Carcinogen: N-N-DIETHYLNITROSAMINE [55-18-5], N-METHYL-N-NITROSOUREA [684-93-5], N,N'-DIMETHYLHYDRAZINE [540-73-8], N-BUTYL-N-(4-HYD, Dose [Inhibitor]: 1 PPM IN DIET FOR 25 WK BEGINNING 1 WK POST LAST CARCINOGEN DOSE (STUDY DURATION: 30 WK), Route [Inhibitor]: ORAL, Strain/Sex: F344/MALE, Target Tissue: Type of Lesion: COLON: ADENOCARCINOMA, Dose [Carcinogen]: 100 MG/KG BW DEN IP ONCE ON DAY 0, 20 MG/KG BW MNU IP 4X ON DAYS 2, 5, 8, 11, 40 MG/KG BW DMH SC ON DAYS 14, 17, 20, 23;, Dose [Carcinogen]: 100 MG/KG BW DEN IP ONCE ON DAY 0, 20 MG/KG BW MNU IP 4X ON DAYS 2, 5, 8, 11, 40 MG/KG BW DMH SC ON DAYS 14, 17, 20, 23;, Promoter: NONE) | tumour outcome (control, treated, inhibition, significance) (Carcinogen: N-N-DIETHYLNITROSAMINE [55-18-5], N-METHYL-N-NITROSOUREA [684-93-5], N,N'-DIMETHYLHYDRAZINE [540-73-8], N-BUTYL-N-(4-HYD, Carcinogen: N-N-DIETHYLNITROSAMINE [55-18-5], N-METHYL-N-NITROSOUREA [684-93-5], N,N'-DIMETHYLHYDRAZINE [540-73-8], N-BUTYL-N-(4-HYD, Dose [Inhibitor]: 1 PPM IN DIET FOR 25 WK BEGINNING 1 WK POST LAST CARCINOGEN DOSE (STUDY DURATION: 30 WK), Route [Inhibitor]: ORAL, Strain/Sex: F344/MALE, Target Tissue: Type of Lesion: COLON: ADENOMA, Dose [Carcinogen]: 100 MG/KG BW DEN IP ONCE ON DAY 0, 20 MG/KG BW MNU IP 4X ON DAYS 2, 5, 8, 11, 40 MG/KG BW DMH SC ON DAYS 14, 17, 20, 23;, Dose [Carcinogen]: 100 MG/KG BW DEN IP ONCE ON DAY 0, 20 MG/KG BW MNU IP 4X ON DAYS 2, 5, 8, 11, 40 MG/KG BW DMH SC ON DAYS 14, 17, 20, 23;, Promoter: NONE) | tumour outcome (control, treated, inhibition, significance) (Carcinogen: N-N-DIETHYLNITROSAMINE [55-18-5], N-METHYL-N-NITROSOUREA [684-93-5], N,N'-DIMETHYLHYDRAZINE [540-73-8], N-BUTYL-N-(4-HYD, Carcinogen: N-N-DIETHYLNITROSAMINE [55-18-5], N-METHYL-N-NITROSOUREA [684-93-5], N,N'-DIMETHYLHYDRAZINE [540-73-8], N-BUTYL-N-(4-HYD, Dose [Inhibitor]: 5 PPM IN DIET FOR 25 WK BEGINNING 1 WK POST LAST CARCINOGEN DOSE (STUDY DURATION: 30 WK), Route [Inhibitor]: ORAL, Strain/Sex: F344/MALE, Target Tissue: Type of Lesion: COLON: ADENOCARCINOMA, Dose [Carcinogen]: 100 MG/KG BW DEN IP ONCE ON DAY 0, 20 MG/KG BW MNU IP 4X ON DAYS 2, 5, 8, 11, 40 MG/KG BW DMH SC ON DAYS 14, 17, 20, 23;, Dose [Carcinogen]: 100 MG/KG BW DEN IP ONCE ON DAY 0, 20 MG/KG BW MNU IP 4X ON DAYS 2, 5, 8, 11, 40 MG/KG BW DMH SC ON DAYS 14, 17, 20, 23;, Promoter: NONE) | tumour outcome (control, treated, inhibition, significance) (Carcinogen: N-N-DIETHYLNITROSAMINE [55-18-5], N-METHYL-N-NITROSOUREA [684-93-5], N,N'-DIMETHYLHYDRAZINE [540-73-8], N-BUTYL-N-(4-HYD, Carcinogen: N-N-DIETHYLNITROSAMINE [55-18-5], N-METHYL-N-NITROSOUREA [684-93-5], N,N'-DIMETHYLHYDRAZINE [540-73-8], N-BUTYL-N-(4-HYD, Dose [Inhibitor]: 5 PPM IN DIET FOR 25 WK BEGINNING 1 WK POST LAST CARCINOGEN DOSE (STUDY DURATION: 30 WK), Route [Inhibitor]: ORAL, Strain/Sex: F344/MALE, Target Tissue: Type of Lesion: COLON: ADENOMA, Dose [Carcinogen]: 100 MG/KG BW DEN IP ONCE ON DAY 0, 20 MG/KG BW MNU IP 4X ON DAYS 2, 5, 8, 11, 40 MG/KG BW DMH SC ON DAYS 14, 17, 20, 23;, Dose [Carcinogen]: 100 MG/KG BW DEN IP ONCE ON DAY 0, 20 MG/KG BW MNU IP 4X ON DAYS 2, 5, 8, 11, 40 MG/KG BW DMH SC ON DAYS 14, 17, 20, 23;, Promoter: NONE) | tumour outcome (control, treated, inhibition, significance) (Carcinogen: 7,12-DIMETHYLBENZ[A]ANTHRACENE, 57-97-6, Dose [Inhibitor]: 0, 5 MG/100 G BW 1/WK FOR 150 D BEGINNING POST CARCINOGEN TREATMENT (STUDY DURATION: 150 D), Route [Inhibitor]: SUBCUTANEOUS, Strain/Sex: WISTAR/FEMALE, Target Tissue: Type of Lesion: MAMMARY GLAND: ADENOCARCINOMA, Dose [Carcinogen]: 4 MG IN 0.1 ML OF SESAME OIL INJECTED ONCE INTO THE EXPOSED MAMMARY TISSUE OF HYPERPROLACTINEMIC RATS ON DAY 73 OF AGE, Promoter: NONE USED)
1 | C=C1CC[C@H](O)C/C1=C/C=C1\CCC[C@]2(C)[C@@H]([C@H](C)CC[C@@H](O)C(C)(C)O)CC[C@@H]12 | 14/18 (77.8%), 10/14 (71.4%), 8%, not significant | 6/18 (33.3%), 3/14 (21.4%), 36%, not significant | 14/18 (77.8%), 5/14 (35.7%), 54%, p<0.05 | 6/18 (33.3%), 0/14 (0.0%), 100%, not significant | 
2 | CC(=O)O[C@H]1CC[C@@]2(C)C(=CC[C@@H]3[C@@H]2CC[C@]2(C)C(=O)CC[C@@H]32)C1 |  |  |  |  | 8/11 (73%), 0/10 (0%), 100%, p<0.01
